Test results as given in patent US6821954B2, “Compounds and uses thereof in treating bone disorders” (Auckland UniServices Limited, priority 1997, dated 2004).
Bridge positions count the residues as written; N and C are the ends. Ends that are not written are not given here. Peptide text beside a SMILES is read from it.

Key:
fetal rat osteoblasts = test: Osteoblast proliferation studies (cell counts and [3H]-thymidine incorporation) in osteoblast-like cell culture; assay type: cell-based; conditions: for effect on osteoblast cell number / effect on thymidine incorporation / proliferative effect on osteoblasts: 10^−9 M; for effect on osteoblast cell number: 24 h incubation; for effect on osteoblast cell number / effect on thymidine incorporation: FIG. 1; for effect on thymidine incorporation: last two hours of 24 h incubation; for EC50: read-out: half-maximally effective concentration on cell number; for proliferative effect on osteoblasts: cell number and thymidine incorporation; for concentration that completely blocked the proliferative effect of intact amylin: intact amylin 10^−9 M, cell number, FIG. 4; for blocking of the action of intact amylin on cell number / blocking of the action of intact amylin on thymidine incorporation: equimolar concentrations (10^−9 M), FIG. 5, FIG. 9; for blocking of the effects of amylin-(1-8) on osteoblast proliferation: equimolar concentrations
Experimental: Osteoblasts were isolated by collagenase-digestion from 20-day fetal rat calvariae. Calvariae were dissected aseptically and the frontal and parietal bones were stripped of their periosteum. only the central portions of the bones, free from sutrue tissue, were collected. The calvariae were treated twice with phosphate buffered saline (PBS) containing 3 mM EDTA (pH 7.4) for 15 minutes at 37E C. in a shaking water bath. After washing once in PBS, the calvariae were treated twice with 3 ml of 1 mg/ml collagenase for 7 minutes at 37E C. After discarding the supernatants from digestions I and II, the calvariae were treated a further twice with 3 ml of 2 mg/ml collagenase (30 mins, 37E C.). The supernatants of digestions III and IV were pooled, centrifuged, and the cells washed in Dulbecco's modified Eagle's medium (DME) with 10% fetal calf serum (FCS), suspended in further DME/10% FCS and placed in 75 cm^2 flasks. The cells were incubated under 5% CO2 and 95% air at 37E C. Confluence was reached by 5-6 days, at which time the cells were subcultured. After trypsinization using trypsin-EDTA (0.05%/0.53 mM), the cells were rinsed in minimum essential medium (MEM) with 5% FCS and resuspended in fresh medium, the seeded at 5×10^4 cells/ml in 24-well plates (0.5 ml cell suspension per well, i.e. 2.5×10^4 cells/well).
Proliferation studies (cell counts and thymidine incorporation) were performed in subconfluent cell populations, 24 h after subculturing cells were changed to serum-free medium with 0.1% bovine serum albumin plus the experimental compounds. Cell numbers were analysed 24 hours after addition of the peptide or vehicle by detaching cells form the wells by exposure to trypsin/EDTA (0.05%/0.53 mM) for approximately 5 minutes at 37E C. Counting was performed in a hemocytometer chamber. Results are expressed per well. [^3H]-Thymidine incorporation into actively-growing and growth-arrested cells was assessed by pulsing the cells with [^3H]-thymidine ([…]) two hours before the end of the experimental incubation. Experiments were terminated at 24 hours by washing the cells in MEM followed by the addition of 10% trichloroacetic acid. The precipitate was washed twice with ethanol:ether (3:1) and the wells desiccated at room temperature. The residue was redissolved in 2 M KOH at 55E C. for 30 mins, neutralized with 1 M HCI, and an aliquot counted for radioactivity. Results are expressed as dpm per well. For cell counts and thymidine incorporation, each experiment was performed at least four different times using experimental groups consisting of at least six wells.

neonatal mouse calvariae = test: Bone resorption in bone organ culture (45Ca release); assay type: cell-based; conditions: for effect on basal bone resorption: 10^−8 M, calcium release, FIG. 6
Experimental: Bone resorption studies were carried out in neonatal mouse calvariae as described previously. Mice were injected subcutaneously with […] at 2 days of age, and hemicalvariae were dissected out four days later. Hemicalvariae were pre-incubated for 24 hours in medium 199 with 0.1% bovine serum albumin, then changed to fresh medium containing peptide or vehicle. Incubation was continued for a further 48 hours. There were 5-7 hemicalvariae in each group.

[1] = Catabolism of peptides in calvarial organ culture (pre-incubation, then test on osteoblast proliferation); assay type: in vitro ADME, mouse; conditions: for effect of pre-incubation for two hours on osteoblastic activity: pre-incubation in calvarial organ culture 2 hours; for effect of pre-incubation for two hours on osteoblastic activity / osteoblastic activity after pre-incubation for four or more hours: cell number or thymidine incorporation, FIG. 7; for osteoblastic activity after pre-incubation for four or more hours: pre-incubation in calvarial organ culture four or more hours; for ability to block amylin's stimulation of osteoblast proliferation after pre-incubation: pre-incubation with calvariae for six hours, FIG. 8
Experimental: To determine whether the various peptide fragments underwent significant catabolism in organ culture, they were incubated with calvariae before being added to osteoblast cultures. The organ cultures were set up using hemicalvariae from animals that had not be pretreated with ^45Ca. The fragments or vehicle were incubated with the calvariae for 2, 4, or 6 hours. Extracts of the media were removed then immediately added to osteoblast cultures for measurement of their effects on osteoblast proliferation, as described above.

osteoblasts = conditions: background section; cited from earlier work
[2] = listed as amylin (1-8) with 2 to 7 disulphide bond removed

Row | Molecule | effect on osteoblast cell number (fetal rat osteoblasts) | effect on thymidine incorporation (fetal rat osteoblasts) | EC50 (fetal rat osteoblasts; 24 h, FIG. 2) [nM] | effect on basal bone resorption (neonatal mouse calvariae) | effect of pre-incubation for two hours on osteoblastic activity [1] | osteoblastic activity after pre-incubation for four or more hours [1] | concentration that completely blocked the proliferative effect of intact amylin (fetal rat osteoblasts) | ability to block amylin's stimulation of osteoblast proliferation after pre-incubation [1] | proliferative effect on osteoblasts (fetal rat osteoblasts) | blocking of the action of intact amylin on cell number (fetal rat osteoblasts) | blocking of the action of intact amylin on thymidine incorporation (fetal rat osteoblasts) | other results
1 | C[C@H](NC(=O)[C@@H]1CSSC[C@H](NC(=O)[C@@H](N)CCCCN)C(=O)N[C@@H](CC(N)=O)C(=O)N[C@@H]([C@@H](C)O)C(=O)N[C@@H](C)C(=O)N[C@@H]([C@@H](C)O)C(=O)N1)C(N)=O [Amylin-(1-8), Lysine-c[cysteine-asparagine-threonine-alanine-threonine-cysteine]-alanine-NH2] (H-KCNTATCA-NH2; disulfide 2-7) | consistently stimulated | consistently stimulated | 0.24 | lack of effect | no effect | completely lost their activity |  |  |  |  |  | effect on osteoblast cell number (fetal rat osteoblasts; listed as (1-8) fragment): stimulated both indices; effect on thymidine incorporation (fetal rat osteoblasts; listed as (1-8) fragment): stimulated both indices; concentrations at which the maximal effect on cell number was seen (fetal rat osteoblasts; 24 h, FIG. 2): ≥ 10^−9 M; maximal effect on cell number compared with intact amylin (fetal rat osteoblasts; 24 h, FIG. 2): not significantly less than that produced by the intact molecule; proliferative effect on osteoblasts (fetal rat osteoblasts; listed as Amylin (1-8)): active; proliferative effect on osteoblasts (fetal rat osteoblasts; listed as amylin-(1-8)): stimulates osteoblast proliferation; effect on bone resorption, multiple additions (neonatal mouse calvariae; additions at 0, 8 and 30 hours, data not shown): did not influence bone resorption
2 | Amylin-(8-37): rat amylin fragment 8-37; functions as an amylin antagonist in other tissues |  |  |  |  |  |  | ≥ 10^−10 M | decreased their ability to block |  |  |  | 
3 | Amylin: 37-amino acid peptide co-secreted with insulin from the beta cells of the pancreatic islets; rat amylin used | significant increase | significant increase | 0.02 | inhibited basal bone resorption | no effect | completely lost their activity |  |  |  |  |  | concentrations giving dose-dependent stimulation of osteoblast proliferation (osteoblasts): ≥ 10^−11 M
4 | CGRP-(8-37): the comparable (8-37) peptide fragment from CGRP (calcitonin gene-related peptide) (VTHRLAGLLSRSGGVVKNNFVPTNVGSKAF; ends and bridges not checked) |  |  |  |  |  |  | > 10^−8 M |  |  |  |  | 
5 | Reduced Amylin: Rat amylin reduced with dithiothreitol (2-7 disulphide removed) |  |  |  |  |  |  |  | decreased their ability to block | no proliferative effect | effective blockers | effective blockers | 
6 | Reduced amylin (1-8): amylin (1-8) reduced with dithiothreitol, 2 to 7 disulphide bond removed (KCNTATCA; Islet amyloid polypeptide reduced, disulphide removed; UniProt P12969 38-45, looked up, fragment) |  |  |  |  |  |  |  |  | no proliferative effect | effective blocker | effective blocker | proliferative effect on osteoblasts (fetal rat osteoblasts; [2]): inactive; blocking of the effects of amylin-(1-8) on osteoblast proliferation (fetal rat osteoblasts): effective blocker; blocking of the effects of amylin-(1-8) on osteoblast proliferation (fetal rat osteoblasts; [2]): blocks the activity of amylin (1-8); blocking of amylin's inhibition of bone resorption (neonatal mouse calvariae; with amylin): did not act as a blocker
